Laboratory results reported in patent US7763641B2, “Broadspectrum heterocyclic substituted phenyl containing sulfonamide HIV protease inhibitors” (Tibotec Pharmaceuticals Ltd., priority 2001, dated 2010).
Where two headings read alike, the source gives them in different places.

Key:
HIV-1 strain LAI = experiment: Cellular anti-HIV assay (MTT), wild type strain; type: cell-based; settings: for pEC50: MT4 cells, five days, MTT, HIV-1 strain LAI, Tables 1-6; for WT (pEC50 against wild type HIV-LAI strain): Table 8
Method: The compounds of the present invention were examined for anti-viral activity in a cellular assay. […] The cellular assay was performed according to the following procedure.

HIV strain B = experiment: Cellular anti-HIV assay, clinically isolated mutant strain B; type: cell-based; settings: FR=EC50 (mutant strain)/EC50 (HIV-1 strain LAI)
Method: (§1) HIV- or mock-infected MT4 cells were incubated for five days in the presence of various concentrations of the inhibitor. […] Cell viability is measured by measuring the concentration of MTT, a yellow, water soluble tetrazolium dye that is converted to a purple, water insoluble formazan in the mitochondria of living cells only. Upon solubilization of the resulting formazan crystals with isopropanol, the absorbance of the solution is monitored at 540 nm. The values correlate directly to the number of living cells remaining in the culture at the completion of the five day incubation. The inhibitory activity of the compound was monitored on the virus-infected cells and was expressed as EC50 and EC90. These values represent the amount of the compound required to protect 50% and 90%, respectively, of the cells from the cytopathogenic effect of the virus. […] The selectivity index (SI) (ratio CC50/EC50) is an indication of the selectivity of the anti-HIV activity of the inhibitor. Wherever results are reported as e.g. pEC50 or pCC50 values, the result is expressed as the negative logarithm of the result expressed as EC50 or CC50 respectively.
(§2) Because of the increasing emergence of drug resistant HIV strains, the present compounds were tested for their potency against clinically isolated HIV strains harboring several mutations (Table 7 and 8).
(§3) As a measure of the broad spectrum activity of the present compounds, the fold resistance (FR), defined as FR=EC50 (mutant strain)/EC50 (HIV-1 strain LAI), was determined.

HIV strain D = experiment: Cellular anti-HIV assay, clinically isolated mutant strain D; type: cell-based; settings: FR=EC50 (mutant strain)/EC50 (HIV-1 strain LAI)
Method: as §1, §2, §3

HIV strain C = experiment: Cellular anti-HIV assay, clinically isolated mutant strain C; type: cell-based; settings: FR=EC50 (mutant strain)/EC50 (HIV-1 strain LAI)
Method: as §1, §2, §3

mock-infected MT4 cells = experiment: Toxicity on mock-infected cells (MTT)
Method: as §1, §3

HIV strain A = experiment: Cellular anti-HIV assay, clinically isolated mutant strain A; type: cell-based; settings: FR=EC50 (mutant strain)/EC50 (HIV-1 strain LAI)
Method: as §1, §2, §3

HIV strain E = experiment: Cellular anti-HIV assay, clinically isolated mutant strain E; type: cell-based; settings: FR=EC50 (mutant strain)/EC50 (HIV-1 strain LAI)
Method: as §1, §2, §3

[1] = pCC50 with mock transfected cells

CC(C)CN(C[C@@H](O)[C@H](Cc1ccccc1)NC(=O)OCc1cncs1)S(=O)(=O)c1ccc(-c2csc(Nc3ccncc3)n2)cc1 [Compound 10]
pEC50 (HIV-1 strain LAI): 5.5

Cc1cc(-c2nc(-c3ccc(S(=O)(=O)N(CC(C)C)CC(O)C(Cc4ccccc4)NC(=O)OC4COC5OCCC45)cc3)co2)no1 (stereo not drawn) [Compound 46]
B (FR towards mutant B) (HIV strain B): 32
D (FR towards mutant D) (HIV strain D): 32
C (FR towards mutant C) (HIV strain C): 9.1
Tox (pCC50) (mock-infected MT4 cells): <4.49
A (FR value towards mutant A) (HIV strain A): 182
pEC50 (HIV-1 strain LAI): 8.4
WT (pEC50 against wild type HIV-LAI strain) (HIV-1 strain LAI): 8.4
E (FR towards mutant E) (HIV strain E): 9.8

Cc1cc(Br)cc(C)c1OCC(=O)N[C@@H](Cc1ccccc1)[C@H](O)CN(CC(C)C)S(=O)(=O)c1ccc(-c2csc(Nc3ccncc3)n2)cc1 [Compound 21]
pEC50 (HIV-1 strain LAI): 4.7

CC(C)CN(CC(O)C(Cc1ccccc1)NC(=O)OC1COC2OCCC12)S(=O)(=O)c1ccc(-c2coc(-c3ccc4c(c3)OCO4)n2)cc1 (stereo not drawn) [Compound 45]
pEC50 (HIV-1 strain LAI): 7.8

Cc1nc(-c2ccc(S(=O)(=O)N(CC(C)C)C[C@@H](O)[C@H](Cc3ccccc3)NC(=O)OCc3cncs3)cc2)co1 [Compound 36, [(1S,2R)-2-hydroxy-3-[N-[4-(2-methyloxazol-4-yl)phenylsulfonyl]-N-(2-methylpropyl)amino]-1-(phenylmethyl)propyl]carbamic acid, (thiazol-5-ylmethyl)ester]
pEC50 (HIV-1 strain LAI): 6.3

C=CCNc1nc(-c2ccc(S(=O)(=O)N(CC(C)C)C[C@@H](O)[C@H](Cc3ccccc3)NC(=O)COc3c(C)cccc3C)cc2)cs1 [Compound 16]
pEC50 (HIV-1 strain LAI): 5.1

CCNc1nc(-c2ccc(S(=O)(=O)N(CC(C)C)C[C@@H](O)[C@H](Cc3ccccc3)NC(=O)COc3c(C)cccc3C)cc2)cs1 [Compound 15]
pEC50 (HIV-1 strain LAI): 5.3

CC(C)CN(C[C@@H](O)[C@H](Cc1ccccc1)NC(=O)O[C@H]1CO[C@H]2OCC[C@H]21)S(=O)(=O)c1ccc(-c2cnccn2)cc1 [Compound 56, [(1S,2R)-2-hydroxy-3-[N-(2-methylpropyl)-N-[4-(pyrazin-2-yl)-phenylsulfonyl]amino]-1-(phenylmethyl)propyl]carbamic acid, [(3R,3aS,6aR)-hexahydrofuro[2,3-b]furan-3-yl]ester]
pEC50 (HIV-1 strain LAI): 8.1

Cc1cc(Br)cc(C)c1OCC(=O)N[C@@H](Cc1ccccc1)[C@H](O)CN(CC(C)C)S(=O)(=O)c1ccc(-c2csc(N)n2)cc1 [Compound 13]
pEC50 (HIV-1 strain LAI): 5.3

CCNc1nc(-c2ccc(S(=O)(=O)N(CC(C)C)C[C@@H](O)[C@H](Cc3ccccc3)NC(=O)COc3c(C)cc(Br)cc3C)cc2)cs1 [Compound 19]
pEC50 (HIV-1 strain LAI): 4.6

Cc1cccc(C)c1OCC(=O)N[C@@H](Cc1ccccc1)[C@H](O)CN(CC(C)C)S(=O)(=O)c1ccc(-c2csc(N)n2)cc1 [Compound 8]
pEC50 (HIV-1 strain LAI): 5.9

CC(=O)Nc1nc(-c2ccc(S(=O)(=O)N(CC(C)C)C[C@@H](O)[C@H](Cc3ccccc3)NC(=O)COc3c(C)cc(Br)cc3C)cc2)cs1 [Compound 17]
pEC50 (HIV-1 strain LAI): 4.2

CC(C)CN(CC(O)C(Cc1ccccc1)NC(=O)OC1COC2OCCC12)S(=O)(=O)c1ccc(-c2coc(-c3ccc(C#N)cc3)n2)cc1 (stereo not drawn) [Compound 52]
B (FR towards mutant B) (HIV strain B): 17
D (FR towards mutant D) (HIV strain D): 16
C (FR towards mutant C) (HIV strain C): 6.2
Tox (pCC50) (mock-infected MT4 cells): <4.49
pEC50 (HIV-1 strain LAI): 8.1
WT (pEC50 against wild type HIV-LAI strain) (HIV-1 strain LAI): 8.1
E (FR towards mutant E) (HIV strain E): 11

CC(C)CN(CC(O)C(Cc1ccccc1)NC(=O)OC1COC2OCCC12)S(=O)(=O)c1ccc(-c2coc(-c3ccc(I)cc3)n2)cc1 (stereo not drawn) [Compound 47]
pEC50 (HIV-1 strain LAI): 7.1

CC(C)CN(CC(O)C(Cc1ccccc1)NC(=O)OC1COC2OCCC12)S(=O)(=O)c1ccc(-c2coc(COCc3ccccc3)n2)cc1 (stereo not drawn) [Compound 39]
Tox (pCC50) (mock-infected MT4 cells): <4.0
A (FR value towards mutant A) (HIV strain A): 36
pEC50 (HIV-1 strain LAI): 8.1
WT (pEC50 against wild type HIV-LAI strain) (HIV-1 strain LAI): 8.1
E (FR towards mutant E) (HIV strain E): 52

Cc1cccc(C)c1OCC(=O)N[C@@H](Cc1ccccc1)[C@H](O)CN(CC(C)C)S(=O)(=O)c1ccc(-c2csc(Nc3ccncc3)n2)cc1 [Compound 11]
pEC50 (HIV-1 strain LAI): 5.4

CC(C)CN(CC(O)C(Cc1ccccc1)NC(=O)OC1COC2OCCC12)S(=O)(=O)c1ccc(-c2csc(Nc3ccncc3)n2)cc1 (stereo not drawn) [Compound 5]
B (FR towards mutant B) (HIV strain B): 6.3
C (FR towards mutant C) (HIV strain C): 3.0
Tox (pCC50) (mock-infected MT4 cells; [1]): 4.95
A (FR value towards mutant A) (HIV strain A): 22.3
pEC50 (HIV-1 strain LAI): 7.6
WT (pEC50 against wild type HIV-LAI strain) (HIV-1 strain LAI): 7.6
E (FR towards mutant E) (HIV strain E): 13.5

CC(C)Cc1nc(-c2ccc(S(=O)(=O)N(CC(C)C)CC(O)C(Cc3ccccc3)NC(=O)OC3COC4OCCC34)cc2)co1 (stereo not drawn) [Compound 49]
B (FR towards mutant B) (HIV strain B): 21
C (FR towards mutant C) (HIV strain C): 4.4
Tox (pCC50) (mock-infected MT4 cells): <4.49
pEC50 (HIV-1 strain LAI): 8.1
WT (pEC50 against wild type HIV-LAI strain) (HIV-1 strain LAI): 8.1
E (FR towards mutant E) (HIV strain E): 10

CC(=O)Nc1nc(-c2ccc(S(=O)(=O)N(CC(C)C)C[C@@H](O)[C@H](Cc3ccccc3)NC(=O)COc3c(C)cccc3C)cc2)cs1 [Compound 12]
pEC50 (HIV-1 strain LAI): 5.3

CC(C)CN(CC(O)C(Cc1ccccc1)NC(=O)OC1COC2OCCC12)S(=O)(=O)c1ccc(-c2coc(-c3cccs3)n2)cc1 (stereo not drawn) [Compound 50]
B (FR towards mutant B) (HIV strain B): 14
D (FR towards mutant D) (HIV strain D): 13
C (FR towards mutant C) (HIV strain C): 4.3
Tox (pCC50) (mock-infected MT4 cells): <4.49
pEC50 (HIV-1 strain LAI): 8.0
WT (pEC50 against wild type HIV-LAI strain) (HIV-1 strain LAI): 8.0

CNc1nc(-c2ccc(S(=O)(=O)N(CC(C)C)C[C@@H](O)[C@H](Cc3ccccc3)NC(=O)COc3c(C)cccc3C)cc2)cs1 [Compound 9]
pEC50 (HIV-1 strain LAI): 5.9

Cc1cccc(C)c1OCC(=O)N[C@@H](Cc1ccccc1)[C@H](O)CN(CC(C)C)S(=O)(=O)c1ccc(-c2cc[nH]n2)cc1 [Compound 24, [(1S,2R)-2-hydroxy-3-[N-(2-methylpropyl)-N-(4-pyrazol-3(5)-ylphenylsulfonyl)-amino]-1-(phenylmethyl)propyl]-(2,6-dimethylphenoxy) acetamide]
Tox (pCC50) (mock-infected MT4 cells; [1]): 4.2
A (FR value towards mutant A) (HIV strain A): 1.1
pEC50 (HIV-1 strain LAI): 7.1
WT (pEC50 against wild type HIV-LAI strain) (HIV-1 strain LAI): 7.1
E (FR towards mutant E) (HIV strain E): 3.1

Cc1cccc(C)c1OCC(=O)N[C@@H](Cc1ccccc1)[C@H](O)CN(CC(C)C)S(=O)(=O)c1ccc(-c2ccnn2C(C)(C)C)cc1 [Compound 27]
pEC50 (HIV-1 strain LAI): 5.2

Cc1cccc(C)c1OCC(=O)N[C@@H](Cc1ccccc1)[C@H](O)CN(CC(C)C)S(=O)(=O)c1ccc(-c2ccnn2C)cc1 [Compound 25]
pEC50 (HIV-1 strain LAI): 5.9

CC(C)CN(CC(O)C(Cc1ccccc1)NC(=O)OC1COC2OCCC12)S(=O)(=O)c1ccc(-c2nc(N)nc(N)n2)cc1 (stereo not drawn) [Compound 58]
pEC50 (HIV-1 strain LAI): 6.0

CC(C)CN(CC(O)C(Cc1ccccc1)NC(=O)OC1COC2OCCC12)S(=O)(=O)c1ccc(-c2coc(-c3ccc(Br)cc3)n2)cc1 (stereo not drawn) [Compound 51]
D (FR towards mutant D) (HIV strain D): 12
C (FR towards mutant C) (HIV strain C): 4.8
Tox (pCC50) (mock-infected MT4 cells; [1]): <4.49
pEC50 (HIV-1 strain LAI): 7.5
WT (pEC50 against wild type HIV-LAI strain) (HIV-1 strain LAI): 7.5
E (FR towards mutant E) (HIV strain E): 4.8

CCn1nccc1-c1ccc(S(=O)(=O)N(CC(C)C)C[C@@H](O)[C@H](Cc2ccccc2)NC(=O)COc2c(C)cccc2C)cc1 [Compound 29]
pEC50 (HIV-1 strain LAI): 5.2

Cc1sc(N)nc1-c1ccc(S(=O)(=O)N(CC(C)C)CC(O)C(Cc2ccccc2)NC(=O)OC2COC3OCCC23)cc1 (stereo not drawn) [Compound 7]
pEC50 (HIV-1 strain LAI): 7.3

CC(C)CN(CC(O)C(Cc1ccccc1)NC(=O)OC1COC2OCCC12)S(=O)(=O)c1ccc(-c2coc(N)n2)cc1 (stereo not drawn) [Compound 37]
pEC50 (HIV-1 strain LAI): 8.4

CC(C)CN(CC(O)C(Cc1ccccc1)NC(=O)OC1COC2OCCC12)S(=O)(=O)c1ccc(-c2cn3ccsc3n2)cc1 (stereo not drawn) [Compound 53]
pEC50 (HIV-1 strain LAI): 7.6

CC(C)CN(CC(O)C(Cc1ccccc1)NC(=O)OC1COC2OCCC12)S(=O)(=O)c1ccc(-c2coc(CCC(=O)O)n2)cc1 (stereo not drawn) [Compound 41]
pEC50 (HIV-1 strain LAI): 7.2

Cc1cccc(C)c1OCC(=O)N[C@@H](Cc1ccccc1)[C@H](O)CN(CC(C)C)S(=O)(=O)c1ccc(-c2ccnn2Cc2ccccc2)cc1 [Compound 28]
pEC50 (HIV-1 strain LAI): 5.2

CC(C)CN(CC(O)C(Cc1ccccc1)NC(=O)OC1COC2OCCC12)S(=O)(=O)c1ccc(-c2c[nH]c(N)n2)cc1 (stereo not drawn) [Compound 34]
pEC50 (HIV-1 strain LAI): 6.2

CCCn1nccc1-c1ccc(S(=O)(=O)N(CC(C)C)C[C@@H](O)[C@H](Cc2ccccc2)NC(=O)COc2c(C)cccc2C)cc1 [Compound 30]
pEC50 (HIV-1 strain LAI): 5.0

Cc1nc(-c2ccc(S(=O)(=O)N(CC(C)C)CC(O)C(Cc3ccccc3)NC(=O)OC3COC4OCCC34)cc2)c[nH]1 (stereo not drawn) [Compound 31]
pEC50 (HIV-1 strain LAI): 7.6

C=CCNc1nc(-c2ccc(S(=O)(=O)N(CC(C)C)C[C@@H](O)[C@H](Cc3ccccc3)NC(=O)COc3c(C)cc(Br)cc3C)cc2)cs1 [Compound 18]
pEC50 (HIV-1 strain LAI): 4.4
